Entries after “also recorded” stand apart in the source; their conditions may differ. Each block holds one molecule with its values, some of them ahead of it.
Tests used:
LC3B = LC3B (Homo sapiens, UniProt Q9GZQ8); assay: MST detection of affinity activity with LC3B; assay type: binding; set-up: His8 (with TEV site) (N); made in house; host or cells: Escherichia coli BL21(DE3)pLysS; conditions: MST; read-out: Kd (μM), equilibrium dissociation constant between the conjugated compound and LC3B
Procedure: The recombinant GST-LC3B proteins were prepared and purified, dialyzed into 1×PBS, and then labelled with the red fluorophore with the protein labeling kit RED-NHS (Nanotemper, cat. no. L001).
The MST experiments were performed using the Monolith NT.115 instrument (NanoTemper Technologies). The reaction buffer contains 20 mM HEPES, pH 7.4, 150 mM NaCl, and the protein concentration was 500 nM. The MST data were collected under 40% infrared laser power and 20% light-emitting diode power. The data were analyzed by Nanotemper software.

[1] = test system: lipid droplets in wild type MEF cells; assay: Reduction of OA-induced lipid droplets in wild type MEF cells (BODIPY 493/503 staining); assay type: cell-based, mouse; conditions: wild type MEF, 24 h; for lipid droplets: 1.5 μM or 5 μM; for amount of lipid droplets / size of lipid droplets: OA-induced
Procedure: (5) OA-BSA stock solution was prepared into OA-BSA working solution (50× final concentration, 200 μM), and 40 μl of OA-BSA working solution was added to each well to induce lipid droplets. For the non-OA induction group, 40 μl of 10% BSA solution was added to the control well, and the amount of BSA was the same as that of the experimental group.
Compounds were formulated into DMSO stock solutions. Stock compounds were diluted with DMSO into the indicated concentrations of working solutions prior to use in the treatment of cells. After induction of the lipid droplets with OA for the indicated time, the test compounds were added to the cells respectively. Control wells were replaced with the equal volume of DMSO. Unless otherwise stated, the compounds were diluted into 10× solutions using the culture medium and added to the culture medium for 24 hours of incubation. Cells were treated with compounds in a 37° C. incubator with 5% CO2.
(3) The original medium in the multi-well plates was removed, washed and the cells was fixed, 1 ml of the BODIPY solution prepared in (1) was added to each well, and stained for 15 minutes. The staining solution was aspirated and washed with 1×PBS.
(5) The coverslips laid in the multi-well plates were removed, and imaged with the Zeiss 880 confocal microscope after mounted, and analyzed the size and number of lipid droplets with ImageJ.
Wild type MEF cells were cultured in a DMEM culture medium containing 10% FBS. Cells were plated according to the method as described above (12 well plate was plated with aseptic treated slides). When cells grew to a confluence of 60-70%, lipid droplets were induced with OA for 30 h according to the method as described above.
At the time point of 6th hour after initiation of induction, the cells were treated (treated for 24 hours) with Compound 1A or Compound 2A (compound concentrations were 50 μM, 15.8 μM, 5 μM, 1.58 μM, 0.5 μM, 0.158 μM) according to the method as described above.

[2] = test system: lipid droplets in SH-SY5Y cells; assay: Lipid droplets in SH-SY5Y cells in the presence of autophagy inhibitor NH4Cl; assay type: cell-based, human; conditions: with NH4Cl 5 mM, 24 h
Procedure: By a method similar to Example 4, but after 6 hours from OA induction of lipid droplets, while the test compound was added into cells, autophagy inhibitor ammonium chloride (NH4Cl, final concentration of 5 mM) was added simultaneously. After continuous treatment for 24 hours, the lipid droplets were stained. […] Therefore, the compound of present disclosure reduced lipid droplets by targeting autophagy of cells.

[3] = test system: lipid droplets in 3T3-L1 fat precursor cell differentiated fat cells; assay: Lipid droplets in 3T3-L1 fat precursor cell differentiated fat cells; assay type: cell-based, mouse; conditions: 3T3-L1 differentiated fat cells, 24 h; for effect of the compound on lipid droplets under the treatment of NH4Cl: 5 μM + NH4Cl 5 mM; for amount of lipid droplets / size of lipid droplets: 5 μM
[4] = test system: lipid droplets in LC3B knockout HEK293T cells; assay: Lipid droplets in LC3B knockout HEK293T cells; assay type: cell-based, human; conditions: 5 μM
Procedure: The effect of conjugated compounds (Compound 1A, Compound 2A, Compound 3A or Compound 4A at a concentration of 5 μM) on lipid droplets in LC3B knockout HEK293T cells was tested by a method similar to Example 2.

[5] = test system: lipid droplets in human normal liver cell line QSG7701; assay: Endogenous lipid droplets in human normal liver cell line QSG7701; assay type: cell-based; conditions: QSG7701, no induction, 5 μM, 24 h
Procedure: 10% FBS+90% RPMI 1640 culture medium was used for cultivation, cell incubator culture condition of 37° C. and 5% CO2 was used. Cells were plated as 50 thousands/well (12 well plate was plated with aseptic treated slides). When cells grew to a confluence of 80-90%, the compound (Compound 1A or Compound 2A, at a concentration of 5 μM) was added for treatment, and LC3 binding Compound A1, A5, lipid droplet probe Sudan IV as well as DMSO acted as a control. […]. In the compounds of present disclosure, LC3 binding moiety was covalently linked with lipid droplet binding moiety, and thus could achieve the effect of reducing liver cell endogenous lipid droplet.

[6] = test system: lipid droplets in autophagy-deficient MEF cells (Atg5−/−); assay: Lipid droplets in autophagy-deficient MEF cells (Atg5-/-); assay type: cell-based, mouse; conditions: 5 μM, 24 h
Procedure: Wild type MEF cells and autophagy-deficient MEF cells (Atg5−/−) were cultured in a DMEM culture medium containing 10% FBS. Cells were plated according to the method as described above (12 well plate was plated with aseptic treated slides). When cells grew to a confluence of 60-70%, lipid droplets were induced with OA for 30 h according to the method as described above. At the time point of 6th hour after initiation of induction, OA induced lipid droplets for 30 h, and the cells were treated (treated for 24 hours) with Compound 1A or Compound 2A according to the method as described above. […] The control wells were replaced with DMSO (treated with DMSO). […] After 26 hours of OA induction for lipid droplets, the culture medium of DMSO treated cells was replaced with EBSS, and starved for 4 hours to induce autophagy, and a slight reduction on lipid droplets was observed relative to cells without starvation treatment. Therefore, lipid droplets can be degraded via cell autophagy. The compound of present disclosure could promote the degradation of lipid droplets via cell autophagy.

[7] = test system: lipid droplets in SH-SY5Y cells; assay: Reduction of OA-induced lipid droplets in SH-SY5Y cells; assay type: cell-based, human; conditions: for amount of lipid droplet: 1.58 μM-50 μM; for amount of lipid droplet / size of lipid droplet: 24 h; for size of lipid droplet: 5 μM-50 μM; for lipid droplet levels: concentrations as indicated in FIG. 18, 24 h
Source text: The reduction of lipid droplets in SH-SY5Y cells by Compound 1A and Compound 2A was detected by a method that was similar to Example 2, and the result was shown in FIG. 18.
The effects of unconjugated LC3 binding Compound A1, A5 and unconjugated lipid droplet probe ORBB […] respectively on lipid droplets in SH-SY5Y cells (FIG. 20A) and MEF cells (FIG. 20B) were detected by a method similar to Example 2.

[8] = test system: autophagosome-lipid droplet colocalization in MEF cells; assay: Colocalization of autophagosome and lipid droplets in mCherry-LC3B transfected MEF cells; assay type: cell-based, mouse; conditions: 5 μM, 3 h, compared to DMSO control
Procedure: (1) In MEF cells, mCherry-LC3B was expressed by cDNA plasmid transfection.
(2) OA was added to the culture medium 30 hours after transfection to induce lipid droplets.
(3) Compounds were added to treat cells 6 hours after induction.
(4) 3 hours after compounds addition, cells were fixed and BODIPY stained.
(5) The coverslips laid in the multi-well plates were removed, and imaged with the Zeiss 880 confocal microscope after mounted to observe the aggregation of LC3 puncta around the lipid droplets.
In MEF cells, mCherry-LC3B was expressed by cDNA plasmid transfection. At 30th hour of overexpression, OA was added into cells for lipid droplet induction. 6 hours later, the compound was added for 3 hours' treatment, and then cells were subjected to immunostaining. […] Lipid droplets (green) were stained with BODIPY stain, and nucleus were indicated with DAPI stain. […] In FIG. 24, the colocalized autophagosome-lipid droplet was marked with circles.

wild type MEF cells = assay: Integrity of nuclear membrane, cell membrane and mitochondria in MEF cells; assay type: cell-based, mouse; conditions: 5 μM, 24 h
Procedure: Cells were blocked in 4% BSA+0.1% Triton X-100 in 1×PBS for 30 min and incubated overnight at 4° C. with primary antibody goat polyclonal Lamin B1 (1:200, Santa Cruz Biotechnology, cat. no. sc-6216, RRID: AB_648156), washed with blocking buffer, and incubated with secondary antibody (1:500, Alexa Flour488 donkey anti-goat, Jackson immunoResearch Lab, cat.no. 705-547-003, RRID: AB_2340431) at room temperature for 1 hour. The samples were washed three times and stained with DAPI for 10 min at room temperature.
MitoTracker staining and CellMask staining were performed the same as LysoTracker staining, except using MitoTracker™ Green FM (500 nM, Thermo Fisher, cat. no. M7514) staining for 3 hours to detect total mitochondria; MitoTracker™ Red CMXRos. (500 nM, Thermo Fisher, cat. no. M7512) staining for 3 hours to detect healthy mitochondria; and CellMask™ (2000×, CellMask™ Plasma Membrane Stains, Thermo Fisher, cat. no. C10046) staining for 5 minutes at 37° C.
Wild type MEF cells were treated with conjugated compound (Compound 1A, Compound 2A, Compound 3A or Compound 4A at a concentration of 5 μM) according to a method similar to Example 2. […]

[9] = test system: lipid droplets in wild type MEF cells; assay: Reduction of OA-induced lipid droplets in wild type MEF cells (BODIPY 493/503 staining); assay type: cell-based, mouse

Kd (LC3B): 3.56 µM
Molecule: 3-(3,5-dibromo-4-hydroxylbenzylidene)-5-iodo-1-(10-((1-((E)-(4-((E)-phenyldiazenyl)phenyl)diazenyl)naphthalen-2-yl)oxy)decyl)indol-2-one [Compound 1A]
lipid droplets [1]: significantly reduced | amount of lipid droplets ([1]; 0.5 μM-50 μM): significantly reduced | size of lipid droplets ([1]; 5 μM-50 μM): significantly reduced | lipid droplets [2]: does not change; also recorded: did not reduce | effect of the compound on lipid droplets under the treatment of NH4Cl [3]: blocked | amount of lipid droplets [3]: could reduce | size of lipid droplets [3]: could change | reduction of lipid droplets induced by conjugated compounds after knockout of LC3B gene [4]: largely blocked | endogenous lipid droplets (amount) [5]: significantly reduce; also recorded: could reduce | lipid droplets [6]: does not change; also recorded: ineffective | amount of lipid droplet [7]: significantly reduce | size of lipid droplet [7]: significantly reduce | lipid droplet levels [7]: significantly reduces | ratio of colocalization of red and green aggregation point (autophagosome-lipid droplet) [8]: significantly increased

Kd (LC3B): 5.37 µM
Molecule: Cc1ccccc1/N=N/c1ccc(/N=N/c2c(OCCCCCCCCCCOc3cc(O)cc4oc(=O)cc(-c5ccccc5)c34)ccc3ccccc23)c(C)c1 [Compound 2A, 7-hydroxy-5-((10-((1-((E)-(2-methyl-4-((E)-o-methylphenyldiazenyl)phenyl)diazenyl)naphthalen-2-yl)oxy)decyl)oxy)-4-phenyl-2H-chromen-2-one]
lipid droplets [1]: significantly reduced | amount of lipid droplets ([1]; 1.58 μM-50 μM): significantly reduced | size of lipid droplets ([1]; 1.58 μM-50 μM): significantly reduced | lipid droplets [2]: does not change; also recorded: did not reduce | effect of the compound on lipid droplets under the treatment of NH4Cl [3]: blocked | amount of lipid droplets [3]: could reduce | size of lipid droplets [3]: could change | reduction of lipid droplets induced by conjugated compounds after knockout of LC3B gene [4]: largely blocked | endogenous lipid droplets (amount) [5]: significantly reduce; also recorded: could reduce | lipid droplets [6]: does not change; also recorded: ineffective | amount of lipid droplet [7]: significantly reduce | size of lipid droplet [7]: significantly reduce | lipid droplet levels [7]: significantly reduces | ratio of colocalization of red and green aggregation point (autophagosome-lipid droplet) [8]: significantly increased

integrity of nuclear membrane, cell membrane, mitochondrion membrane (wild type MEF cells): Did not Affect
Molecule: Cc1ccccc1/N=N/c1ccc(/N=N/c2c(OCCCCCCCCCCOc3cc(O)c4c(-c5ccccc5)cc(=O)oc4c3)ccc3ccccc23)c(C)c1 [Compound 2]

Molecule: Cl.N [NH4Cl, ammonium chloride]
lipid droplets ([9]; DMSO treated cells, 5 mM NH4Cl, 24 h, relative to cells not treated with NH4Cl): slight increase | amount or size of lipid droplets ([9]; wild type MEF, autophagy blocker NH4Cl): slightly increased

Source: patent publication US12582720B2, “Compound for preventing or treating lipid metabolism-related diseases” (Fudan University, priority 2020, dated 2026)
